Experimental data from publication PMC9489211, “Regulation of pulmonary surfactant by the adhesion GPCR GPR116/ADGRF5 requires a tethered agonist-mediated activation mechanism” (eLife, 2022).
Read-outs that look alike come from different tables or passages of the source. Where a SMILES comes first, the peptide text is derived from it. Where no end group is shown, it is not given here. [ ]: non-standard residue; d: D form. Nle = CCCC[C@H](N)C(=O)O

T1: full-length mGPR116 (HEK293 clone 3C) (Mus musculus, UniProt G5E8Q8)
T1 construct: expressed in transfected cells
T1 sequence (G5E8Q8 22-1348): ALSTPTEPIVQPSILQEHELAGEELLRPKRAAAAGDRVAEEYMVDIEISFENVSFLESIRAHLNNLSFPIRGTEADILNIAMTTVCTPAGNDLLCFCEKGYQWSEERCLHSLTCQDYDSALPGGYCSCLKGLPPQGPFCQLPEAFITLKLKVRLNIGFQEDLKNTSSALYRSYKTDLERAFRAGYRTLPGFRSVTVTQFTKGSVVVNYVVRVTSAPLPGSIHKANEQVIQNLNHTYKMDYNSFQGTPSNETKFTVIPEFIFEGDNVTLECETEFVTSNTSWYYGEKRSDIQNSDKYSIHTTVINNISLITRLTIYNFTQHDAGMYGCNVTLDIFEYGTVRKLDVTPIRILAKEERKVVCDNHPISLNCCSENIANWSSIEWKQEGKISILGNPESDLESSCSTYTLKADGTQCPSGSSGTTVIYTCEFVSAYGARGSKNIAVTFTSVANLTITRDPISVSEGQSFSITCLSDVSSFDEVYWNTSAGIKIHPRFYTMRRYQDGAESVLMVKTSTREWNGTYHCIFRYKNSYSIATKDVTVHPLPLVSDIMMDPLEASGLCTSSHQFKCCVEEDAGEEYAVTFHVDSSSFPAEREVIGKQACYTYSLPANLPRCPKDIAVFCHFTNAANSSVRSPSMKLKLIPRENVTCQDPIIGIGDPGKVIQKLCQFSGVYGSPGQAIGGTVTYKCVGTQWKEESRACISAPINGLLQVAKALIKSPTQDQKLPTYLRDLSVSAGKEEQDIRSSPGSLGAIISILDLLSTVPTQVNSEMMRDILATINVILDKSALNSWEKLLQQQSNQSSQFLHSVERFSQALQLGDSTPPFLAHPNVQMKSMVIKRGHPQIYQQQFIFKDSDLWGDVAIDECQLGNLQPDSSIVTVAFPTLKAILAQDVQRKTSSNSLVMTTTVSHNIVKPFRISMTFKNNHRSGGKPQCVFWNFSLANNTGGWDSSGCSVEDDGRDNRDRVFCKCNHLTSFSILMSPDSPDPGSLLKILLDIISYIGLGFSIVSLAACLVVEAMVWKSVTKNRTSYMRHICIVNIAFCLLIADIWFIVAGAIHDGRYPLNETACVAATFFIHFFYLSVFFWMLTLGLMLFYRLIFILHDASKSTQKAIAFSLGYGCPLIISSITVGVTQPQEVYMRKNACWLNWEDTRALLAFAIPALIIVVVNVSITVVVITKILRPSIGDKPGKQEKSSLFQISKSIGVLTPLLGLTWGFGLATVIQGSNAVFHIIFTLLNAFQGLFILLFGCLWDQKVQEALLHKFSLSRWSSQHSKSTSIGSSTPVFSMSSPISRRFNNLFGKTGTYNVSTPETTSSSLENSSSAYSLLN

T2: full-length hGPR116 (HEK293 clone A6) (Homo sapiens, UniProt Q8IZF2)
T2 construct: expressed in transfected cells
T2 sequence (Q8IZF2 22-1346): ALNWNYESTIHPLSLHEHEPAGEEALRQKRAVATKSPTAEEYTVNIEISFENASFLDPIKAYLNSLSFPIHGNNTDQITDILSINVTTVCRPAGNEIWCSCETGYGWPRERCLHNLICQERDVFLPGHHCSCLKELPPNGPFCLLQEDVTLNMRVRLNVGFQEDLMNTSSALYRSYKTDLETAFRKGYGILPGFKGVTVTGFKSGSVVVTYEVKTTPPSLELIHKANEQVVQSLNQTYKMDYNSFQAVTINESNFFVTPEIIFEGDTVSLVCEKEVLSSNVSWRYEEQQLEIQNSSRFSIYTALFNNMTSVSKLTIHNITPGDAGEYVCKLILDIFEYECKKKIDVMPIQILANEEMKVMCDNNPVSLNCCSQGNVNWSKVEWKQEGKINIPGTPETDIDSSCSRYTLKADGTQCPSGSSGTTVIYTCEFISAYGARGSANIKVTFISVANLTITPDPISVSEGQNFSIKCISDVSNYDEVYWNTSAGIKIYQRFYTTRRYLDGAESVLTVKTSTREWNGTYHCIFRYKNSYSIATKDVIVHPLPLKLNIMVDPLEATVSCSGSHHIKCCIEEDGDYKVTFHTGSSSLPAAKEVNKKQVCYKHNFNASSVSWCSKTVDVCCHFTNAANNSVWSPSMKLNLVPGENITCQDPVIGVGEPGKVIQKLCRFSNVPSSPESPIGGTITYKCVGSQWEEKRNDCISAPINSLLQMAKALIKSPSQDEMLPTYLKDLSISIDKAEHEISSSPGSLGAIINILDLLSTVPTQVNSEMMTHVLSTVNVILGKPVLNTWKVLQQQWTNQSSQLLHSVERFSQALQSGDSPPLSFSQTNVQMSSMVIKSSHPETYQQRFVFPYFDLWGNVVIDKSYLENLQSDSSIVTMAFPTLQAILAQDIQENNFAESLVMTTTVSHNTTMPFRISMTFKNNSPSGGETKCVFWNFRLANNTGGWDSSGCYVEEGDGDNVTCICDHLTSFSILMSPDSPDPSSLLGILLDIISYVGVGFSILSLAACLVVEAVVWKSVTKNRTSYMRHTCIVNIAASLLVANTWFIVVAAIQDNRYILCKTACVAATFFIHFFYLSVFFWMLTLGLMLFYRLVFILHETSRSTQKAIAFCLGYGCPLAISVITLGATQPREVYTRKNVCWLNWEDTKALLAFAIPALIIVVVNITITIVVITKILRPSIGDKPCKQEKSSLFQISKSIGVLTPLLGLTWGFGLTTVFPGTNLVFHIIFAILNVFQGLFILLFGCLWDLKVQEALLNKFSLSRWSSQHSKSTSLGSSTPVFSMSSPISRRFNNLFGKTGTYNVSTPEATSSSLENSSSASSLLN

T3: mouse GPR116 full-length, V5 tagged, clone 1D8 (mouse) (UniProt G5E8Q8)
T3 sequence: T1 sequence (G5E8Q8 22-1348)


Columns and labels:
[1] = target: T1, full-length mGPR116 (HEK293 clone 3C); assay: Calcium transient assay, full-length mGPR116 stably expressed in HEK293 (clone 3C); assay type: cell-based; details: for activation of the mouse full-length receptor (in words): calcium flux assays, Figure 3F
Protocol: (§1) For some constructs, stable populations were generated by treating the cells with G418. After complete selection of resistant cells, these were used in assays. Stable HEK293 clones for full-length hGPR116 (clone A6) and mGPR116 (clone 3C) were described earlier ([Brown et al., 2017]).
(§2) HEK293 cells were seeded in 384-well plates (Greiner, #781946) at 30,000 cells/well. Medium was removed the following day and cells were loaded for 2 hr at 37°C, 5% CO2 with 20 µl Calcium 6 loading buffer (Molecular Devices, Cat# R8191): 1× HBSS (Gibco, Cat# 14065.049) containing 20 mM HEPES (Gibco, Cat#15630) and 2.5 mM probenecid (Sigma, Cat# P8761). Plates were then transferred to a FDSS7000 fluorescence plate reader (HAMAMATSU, Japan) and Ca^2+ responses were measured in real time using a CCD camera with excitation 480 nm/emission 540 nm. Prior to stimulation, baseline measurements were recorded over 5 s (Fmin). For stimulation, 20 µl of test compounds prepared 2× in HBSS containing 20 mM HEPES were dispensed. Fluorescence was read over 1–1.5 min. Maximum fluorescence (Fmax) was determined and normalized to baseline. Data are reported as ∆F/F = (Fmax – Fmin)/Fmin. Adequate response of the endogenous M3R was verified for each transfection, using carbachol at 100 µM and following the same procedure as for the peptide activation.
(§3) Concentration response curves were analyzed using GraphPad Prism 9.2.0. Potency was determined using a nonlinear regression model with variable slope, and statistical significance was determined using a one-way ANOVA followed by Dunnett’s multiple comparison test or a TTEST for comparison of two data sets (*p<0.05, **p<0.01, ***p<0.001, ****p<0.0001, ns, not significant).

[2] = target: T2, full-length hGPR116 (HEK293 clone A6); assay: Calcium transient assay, full-length hGPR116 stably expressed in HEK293 (clone A6); assay type: cell-based; details: calcium transients, hFL clone A6, Figure 3-figure supplement 2 / Figure 7A
Protocol: as §1, §2, §3

[3] = target: T3, mouse GPR116 full-length, V5 tagged, clone 1D8 (mouse)

Row | Molecule | activation of the mouse full-length receptor (in words) [1] | activation of the human full-length receptor (in words) [2] | EC50 of receptor activation (calcium transients), HEK293 cells stably expressing the receptor [3] [µM] | further results
1 | CCCC[C@H](NC(=O)[C@H](C)NC(=O)[C@@H](NC(=O)[C@H](CO)NC(=O)[C@H](Cc1ccccc1)NC(=O)[C@H](CO)NC(=O)[C@@H](N)[C@@H](C)O)[C@@H](C)CC)C(=O)N[C@@H](CO)C(=O)N1CCC[C@H]1C(=O)N[C@@H](CC(=O)O)C(=O)O [GAP10-POS6] (H-TSFSIA[Nle]SPD-OH; N-terminus and C-terminus assumed) | failed to activate | failed to activate | – | –
2 | TSFSILMSPD [GAP10] | – | – | – | EC50 (uM) n=1 ([1]; calcium transient assay, HEK293 clone 3C, Fig 3F, independent experiment n=1 (mean of quadruplicate)): 16.0 µM; EC50 (uM) n=2 ([1]; calcium transient assay, HEK293 clone 3C, Fig 3F, independent experiment n=2 (mean of quadruplicate)): 8.6 µM; EC50 (uM) n=3 ([1]; calcium transient assay, HEK293 clone 3C, Fig 3F, independent experiment n=3 (mean of quadruplicate)): 6.9 µM
3 | TSFSIL[Nle]SPDSPDP [GAP14] | – | – | 107 | –
4 | PSFSIL[Nle]SPD [GAP10-Pro1] | – | – | 17 | –

Continued, in another order:

Row | activation of the mouse full-length receptor (in words) [1] | activation of the human full-length receptor (in words) [2] | EC50 of receptor activation (calcium transients), HEK293 cells stably expressing the receptor [3] [µM] | Molecule | further results
5 | failed to activate | failed to activate | – | CCCC[C@H](NC(=O)[C@H](CC(C)C)NC(=O)[C@@H](NC(=O)[C@H](CO)NC(=O)[C@H](C)NC(=O)[C@H](CO)NC(=O)[C@@H](N)[C@@H](C)O)[C@@H](C)CC)C(=O)N[C@@H](CO)C(=O)N1CCC[C@H]1C(=O)N[C@@H](CC(=O)O)C(=O)O [GAP10-POS3] (H-TSASIL[Nle]SPD-OH; N-terminus and C-terminus assumed) | EC50 ([1]; calcium transient assay, HEK293 clone 3C, Fig 3F, independent experiment n=1 (mean of quadruplicate), read-out: EC50 (uM) n=1): > 100 µM; EC50 ([1]; calcium transient assay, HEK293 clone 3C, Fig 3F, independent experiment n=2 (mean of quadruplicate), read-out: EC50 (uM) n=2): > 100 µM; EC50 ([1]; calcium transient assay, HEK293 clone 3C, Fig 3F, independent experiment n=3 (mean of quadruplicate), read-out: EC50 (uM) n=3): > 100 µM; EC50 ([1]; calcium transient assay, HEK293 clone 3C, Fig 3F, mean of n=2-3 independent experiments, read-out: EC50 (uM) mean): > 100 µM
6 | failed to activate | failed to activate | – | TSFSILASPD [GAP10-POS7] | –
7 | – | – | 25 | TSFSIL[Nle]SPD [GAP10] | –
